The test system of one assay is NCI-H1581 cells. Description: Cell proliferation assay on NCI-H1581 (Table 7). It is filed as cell-based, human. Particulars: CellTiter 96 AQueous (144 hrs) or CellTiter Glo (96 hrs), class symbols, read-out: IC50(nM) value of compounds on NCI-H1581 cells. The text has this:
Test method: adding the appropriate volume of whole medium and the cells was suspended.

The target of a further assay is FGFR1 (Homo sapiens (Human), UniProt P11362). Description: Kinase assay Method 1, mobility shift assay.
Setting [1] is: read-out: IC50(nM) value of compounds FGFR1, mobility shift assay, ATP at Km, class symbols.

SMILES strings stand for the structures. Where two headings read alike, the source gives them in different places.

FGFR1, sequence (P11362 22-822): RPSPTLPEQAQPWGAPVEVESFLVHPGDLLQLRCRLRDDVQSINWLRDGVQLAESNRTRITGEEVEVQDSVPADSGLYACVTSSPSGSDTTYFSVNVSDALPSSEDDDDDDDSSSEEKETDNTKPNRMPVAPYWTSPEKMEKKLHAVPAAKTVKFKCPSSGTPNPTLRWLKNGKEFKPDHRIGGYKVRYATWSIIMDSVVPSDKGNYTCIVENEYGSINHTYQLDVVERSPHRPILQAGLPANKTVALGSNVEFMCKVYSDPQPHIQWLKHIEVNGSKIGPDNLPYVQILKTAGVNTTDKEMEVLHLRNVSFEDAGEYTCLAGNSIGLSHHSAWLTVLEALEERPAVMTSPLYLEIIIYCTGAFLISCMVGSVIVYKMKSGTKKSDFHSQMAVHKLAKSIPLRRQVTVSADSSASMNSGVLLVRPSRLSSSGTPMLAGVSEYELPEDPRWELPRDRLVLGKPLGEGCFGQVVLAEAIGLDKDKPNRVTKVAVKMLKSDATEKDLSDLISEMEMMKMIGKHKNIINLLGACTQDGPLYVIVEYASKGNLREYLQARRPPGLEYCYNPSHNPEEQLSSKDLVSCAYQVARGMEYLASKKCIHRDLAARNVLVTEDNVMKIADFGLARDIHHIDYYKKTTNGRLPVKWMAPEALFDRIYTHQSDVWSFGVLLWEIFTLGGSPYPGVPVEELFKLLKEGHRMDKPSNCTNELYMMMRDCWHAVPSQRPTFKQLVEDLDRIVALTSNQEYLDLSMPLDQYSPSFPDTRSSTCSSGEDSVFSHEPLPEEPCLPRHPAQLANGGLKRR
Procedure for FGFR1: Method 1: The inhibitory activity of some compounds of the present disclosure against FGFR1, FGFR2, FGFR3, FGFR4, KDR was tested by mobility shift assay (concentration of ATP is Km value).
Preparing of compounds: dilute test compounds to specific concentration using 100% DMSO

Regarding `COc1cc(OC)c(Cl)c(-c2cc3cnc(Nc4ccc(N5CCN(C(C)C)CC5)cc4)nc3n3cnnc23)c1` [Compound 11, 6-(2-chloro-3,5-dimethoxyphenyl)-N-(4-(4-isopropylpiperazin-1-yl)phenyl)-[1,2,4]triazolo[4′,3′:1,6]pyrido[2,3-d]pyrimidin-2-amine], the concentration for half-maximal inhibition (IC50) in the assay with NCI-H1581 cells (Homo sapiens, NCI-H1581) is under 1 nM; on FGFR1 (setting [1]) it was under 1 nM. On to `COc1cc(OC)c(Cl)c(-c2cc3cnc(Nc4ccc(N5CCN(C6COC6)CC5)cc4)nc3n3cnnc23)c1` [Compound 13, 6-(2-chloro-3,5-dimethoxyphenyl)-N-(4-(4-(oxetan-3-yl)piperazin-1-yl)phenyl)-[1,2,4]triazolo[4′,3′:1,6]pyrido[2,3-d]pyrimidin-2-amine], for which the IC50 in the assay on NCI-H1581 cells (Homo sapiens, NCI-H1581) was 1 to 10 nM; at FGFR1 (setting [1]), under 1 nM. Take `COc1cc(OC)c(Cl)c(-c2cc3cnc(Nc4ccc(N5CCC(N(C)C)CC5)cc4)nc3n3cnnc23)c1` [Compound 14, 6-(2-chloro-3,5-dimethoxyphenyl)-N-(4-(4-(dimethylamino)piperidin-1-yl)phenyl)[1,2,4]triazolo[4′,3′:1,6]pyrido[2,3-d]pyrimidin-2-amine]: the IC50 in the assay on NCI-H1581 cells (Homo sapiens, NCI-H1581) is under 1 nM; on FGFR1 (setting [1]) it was under 1 nM. Turning to `COc1cc(OC)c(Cl)c(-c2cc3cnc(Nc4ccc(N5CCN(C)CC5)cc4)nc3n3cnnc23)c1` [Compound 15, 6-(2-chloro-3,5-dimethoxyphenyl)-N-(4-(4-methylpiperazin-1-yl)phenyl)-[1,2,4]triazolo[4′,3′:1,6]pyrido[2,3-d]pyrimidin-2-amine], the IC50 was under 1 nM in the assay on NCI-H1581 cells (Homo sapiens, NCI-H1581) and under 1 nM on FGFR1 (setting [1]). For the molecule `COc1cc(OC)c(Cl)c(-c2cc3cnc(Nc4ccc(N5CCN(C)CC5)cn4)nc3n3cnnc23)c1` [Compound 16, 6-(2-chloro-3,5-dimethoxyphenyl)-N-(5-(4-methylpiperazin-1-yl)pyridin-2-yl)-[1,2,4]triazolo[4′,3′:1,6]pyrido[2,3-d]pyrimidin-2-amine], the IC50 was 10 to 100 nM with NCI-H1581 cells (Homo sapiens, NCI-H1581) and over 10 nM on FGFR1 (setting [1]).

Regarding `CCN1CCN(Cc2ccc(Nc3ncc4cc(-c5cc(OC)cc(OC)c5Cl)c5nncn5c4n3)nc2)CC1` [Compound 17, 6-(2-chloro-3,5-dimethoxyphenyl)-N-(5-((4-ethylpiperazin-1-yl)methyl)pyridin-2-yl)-[1,2,4]triazolo[4′,3′:1,6]pyrido[2,3-d]pyrimidin-2-amine], the IC50 in the assay on NCI-H1581 cells (Homo sapiens, NCI-H1581) was 10 to 100 nM; on FGFR1 (setting [1]), over 10 nM. Take `COc1cc(OC)c(Cl)c(-c2cc3cnc(Nc4ccc(N(C)CCN(C)C)cc4)nc3n3cnnc23)c1` [Compound 21]: the values for the 50% inhibitory concentration (IC50) in the assay with NCI-H1581 cells and at FGFR1 (setting [1]) were 1 to 10 nM and under 1 nM, respectively. Regarding `COc1cc(OC)c(Cl)c(-c2cc3cnc(Nc4ccc(N5CC6CCC(C5)N6C)cc4)nc3n3cnnc23)c1` [Compound 23, 6-(2-chloro-3,5-dimethoxyphenyl)-N-(4-(8-methyl-3,8-diazabicyclo[3.2.1]octan-3-yl)phenyl)-[1,2,4]triazolo[4′,3′:1,6]pyrido[2,3-d]pyrimidin-2-amine], the IC50 was under 1 nM with NCI-H1581 cells (Homo sapiens, NCI-H1581) and under 1 nM on FGFR1.

As to `COc1cc(OC)c(Cl)c(-c2cc3cnc(Nc4ccc(N5CCN(C)C(C)(C)C5)cc4)nc3n3cnnc23)c1` [Compound 26, 6-(2-chloro-3,5-dimethoxyphenyl)-N-(4-(3,3,4-trimethylpiperazin-1-yl)phenyl)-[1,2,4]triazolo[4′,3′:1,6]pyrido[2,3-d]pyrimidin-2-amine], the IC50 in the assay on NCI-H1581 cells (Homo sapiens, NCI-H1581) was under 1 nM; on FGFR1 (setting [1]) it was under 1 nM. Turning to `COc1cc(OC)c(Cl)c(-c2cc3cnc(Nc4ccc(N5CCN(CCO)CC5)cc4)nc3n3cnnc23)c1` [Compound 32, 2-(4-(4-((6-(2-chloro-3,5-dimethoxyphenyl)-[1,2,4]triazolo[4′,3′:1,6]pyrido[2,3-d]pyrimidin-2-yl)amino)phenyl)piperazin-1-yl)ethan-1-ol], the IC50 was 1 to 10 nM in the assay on NCI-H1581 cells (Homo sapiens, NCI-H1581) and under 1 nM on FGFR1 (setting [1]). The matching figures for `COc1cc(OC)c(Cl)c(-c2cc3cnc(Nc4ccc(C5CCNCC5)c(C)c4)nc3n3cnnc23)c1` [Compound 52, 6-(2-chloro-3,5-dimethoxyphenyl)-N-(3-methyl-4-(piperidin-4-yl)phenyl)-[1,2,4]triazolo[4′,3′:1,6]pyrido[2,3-d]pyrimidin-2-amine]: under 1 nM and under 1 nM. On to `CCN1CCN(c2ccc(Nc3ncc4cc(-c5c(Cl)c(OC)cc(OC)c5Cl)c5nncn5c4n3)cc2)CC1` [Compound 61, 6-(2,6-dichloro-3,5-dimethoxyphenyl)-N-(4-(4-ethylpiperazin-1-yl)phenyl)-[1,2,4]triazolo[4′,3′:1,6]pyrido[2,3-d]pyrimidin-2-amine], for which the IC50 is under 1 nM in the assay with NCI-H1581 cells (Homo sapiens, NCI-H1581) and under 1 nM on FGFR1 (setting [1]).

On to `C=CC(=O)Nc1ccc(Cc2nnc3c(-c4cc(OC)cc(OC)c4Cl)cc4cnc(NCCN5CCOCC5)nc4n23)cc1` [Compound 86, N-(4-((6-(2-chloro-3,5-dimethoxyphenyl)-2-((2-morpholinoethyl)amino)-[1,2,4]triazolo[4′,3′:1,6]pyrido[2,3-d]pyrimidin-9-yl)methyl)phenyl)acrylamide], for which the IC50 is 1 to 10 nM in the assay on NCI-H1581 cells (Homo sapiens, NCI-H1581) and over 10 nM on FGFR1 (setting [1]). On the same counts, the results for `CCC(=O)Nc1ccc(Cc2nnc3c(-c4cc(OC)cc(OC)c4Cl)cc4cnc(NCCN5CCOCC5)nc4n23)cc1` [Compound 96, N-(4-((6-(2-chloro-3,5-dimethoxyphenyl)-2-((2-morpholinoethyl)amino)-[1,2,4]triazolo[4′,3′:1,6]pyrido[2,3-d]pyrimidin-9-yl)methyl)phenyl)propionamide] are over 100 nM and over 100 nM. For `CC[N+]1([O-])CCN(c2ccc(Nc3ncc4cc(-c5cc(OC)cc(OC)c5Cl)c5nncn5c4n3)cc2)CC1` [Compound 99, 4-(4-((6-(2-chloro-3,5-dimethoxyphenyl)-[1,2,4]triazolo[4′,3′:1,6]pyrido[2,3-d]pyrimidin-2-yl)amino)phenyl)-1-ethylpiperazine 1-oxide], the IC50 with NCI-H1581 cells (Homo sapiens, NCI-H1581) is 1 to 10 nM; at FGFR1 (setting [1]), over 10 nM.

With `COc1cc(OC)c(Cl)c(-c2cc3cnc(Nc4ccc(N5CC[N+]6(O)CCC[C@@H]6C5)cc4)nc3n3cnnc23)c1` (stereo partly drawn) [Compound 100, (8aR)-2-(4-((6-(2-chloro-3,5-dimethoxyphenyl)-[1,2,4]triazolo[4′,3′:1,6]pyrido[2,3-d]pyrimidin-2-yl)amino)phenyl)octahydro-5H-pyrrolo[1,2-a]pyrazine 5-oxide], the IC50 was 10 to 100 nM in the assay with NCI-H1581 cells (Homo sapiens, NCI-H1581) and under 1 nM at FGFR1 (setting [1]). Take `COc1cc(OC)c(Cl)c(-c2cc3cnc(Nc4ccc(N5CCN(C6CCCC6)CC5)cc4)nc3n3cnnc23)c1` [Compound 104, 6-(2-chloro-3,5-dimethoxyphenyl)-N-(4-(4-cyclopentylpiperazin-1-yl)phenyl)-[1,2,4]triazolo[4′,3′:1,6]pyrido[2,3-d]pyrimidin-2-amine]: the half-maximal inhibitory concentration (IC50) is 1 to 10 nM with NCI-H1581 cells (Homo sapiens, NCI-H1581) and under 1 nM on FGFR1 (setting [1]). As for `COc1cc(OC)c(Cl)c(-c2cc3cnc(Nc4ccc(N5CCN(C(C)=O)CC5)cc4)nc3n3cnnc23)c1` [Compound 106, 6-(2-chloro-3,5-dimethoxyphenyl)-N-(4-(4-acetylpiperazine-1-yl)phenyl)-[1,2,4]triazolo[4′,3′:1,6]pyrido[2,3-d]pyrimidin-2-amine], the IC50 in the assay with NCI-H1581 cells (Homo sapiens, NCI-H1581) was 1 to 10 nM; on FGFR1 (setting [1]), under 1 nM.

Consider `COc1cc(OC)c(Cl)c(-c2cc3cnc(Nc4ccc(N5CCN(C(=O)N(C)C)CC5)cc4)nc3n3cnnc23)c1` [Compound 107, 4-(4-((6-(2-chloro-3,5-dimethoxyphenyl)-[1,2,4]triazolo[4′,3′:1,6]pyrido[2,3-d]pyrimidin-2-yl)amino)phenyl)-N,N-dimethylpiperazine-1-carboxamide], for which the IC50 in the assay on NCI-H1581 cells (Homo sapiens, NCI-H1581) was 1 to 10 nM; on FGFR1 (setting [1]) it was under 1 nM. The matching figures for `COc1cc(OC)c(Cl)c(-c2cc3cnc(Nc4ccc(N5CC6(CN(C(=O)N(C)C)C6)C5)cc4)nc3n3cnnc23)c1` [Compound 108, 6-(4-((6-(2-chloro-3,5-dimethoxyphenyl)-[1,2,4]triazolo[4′,3′:1,6]pyrido[2,3-d]pyrimidin-2-yl)amino)phenyl)-N,N-dimethyl-2,6-diazaspiro[3.3]heptane-2-carboxamide]: 10 to 100 nM and over 10 nM. The matching figures for `C=CC(=O)Nc1ccc(Cc2nc3c(-c4cc(OC)cc(OC)c4Cl)cc4cnc(NCCN5CCOCC5)nc4n3n2)cc1` [Compound 112, N-(4-((4-(2-chloro-3,5-dimethoxyphenyl)-8-((2-morpholinoethyl)amino)-[1,2,4]triazolo[1′,5′:1,6]pyrido[2,3-d]pyrimidin-2-yl)methyl)phenyl)acrylamide]: 10 to 100 nM and over 100 nM. The matching figures for `C=CC(=O)N1CCN(CCCc2nnc3c(-c4cc(OC)cc(OC)c4Cl)cc4cnc(NC)nc4n23)CC1` [Compound 113, 1-(4-((6-(2-chloro-3,5-dimethoxyphenyl)-2-(methylamino)-[1,2,4]triazolo[4′,3′:1,6]pyrido[2,3-d]pyrimidin-9-yl)propyl)piperazin-1-yl)prop-2-en-1-one]: 10 to 100 nM and over 10 nM. As to `C=CC(=O)N1CCN(CCc2nnc3c(-c4cc(OC)cc(OC)c4Cl)cc4cnc(NC)nc4n23)CC1` [Compound 114, 1-(4-(2-(6-(2-chloro-3,5-dimethoxyphenyl)-2-(methylamino)-[1,2,4]triazolo[4′,3′:1,6]pyrido[2,3-d]pyrimidin-9-yl)ethyl)piperazin-1-yl)prop-2-en-1-one], the IC50 in the assay with NCI-H1581 cells (Homo sapiens, NCI-H1581) is over 100 nM; at FGFR1 (setting [1]) it was over 100 nM.

As to `CNc1ncc2cc(-c3c(Cl)c(OC)cc(OC)c3Cl)c3nc(CCCN4CCN(C(=O)C(C#N)=CC(C)(C)C)CC4)nn3c2n1` [Compound 148, 2-(4-(3-(4-(2,6-dichloro-3,5-dimethoxyphenyl)-8-(methylamino)-[1,2,4]triazolo[1′,5′:1,6]pyrido[2,3-d]pyrimidin-2-yl)propyl)piperazine-1-carbonyl)-4,4-dimethylpent-2-enenitrile], the IC50 in the assay on NCI-H1581 cells (Homo sapiens, NCI-H1581) was over 100 nM.

These data come from patent publication US11365196B2, “FGFR inhibitor and application thereof” (Betta Pharmaceuticals Co., Ltd., priority 2017, dated 2022).
